Results from patent US20230203043A1, “NOVEL IMIDAZOPYRAZINE DERIVATIVES” (Hoffmann-La Roche Inc., priority 2020, published 2023).
Counter-ions that a name gives are not always drawn.

Tested on: Acinetobacter baumannii ATCC17961
Assay: Antimicrobial susceptibility testing: 90% growth inhibitory concentration (IC90) determination in Iso-Sensitest broth, OD600 growth
Type: cell-based
Conditions: Acinetobacter baumannii, ATCC17961, 16 h, read-out: A. baumannii ATCC 17961 IC90 (uM), strain ATCC 17961, OD600 growth over 16 h
Description: Antimicrobial Susceptibility Testing:
90% Growth Inhibitory Concentration (IC90) Determination
The in vitro antimicrobial activity of the compounds was determined according to the following procedure:
The assay used a 10-points Iso-Sensitest broth medium to measure quantitatively the in vitro activity of the compounds against Acinetobacter baumannii ATCC17961 or ATCC17968.
Stock compounds in DMSO were serially twofold diluted (e.g. range from 50 to 0.097 μM final concentration) in 384 wells microtiter plates and inoculated with 49 μl the bacterial suspension in Iso-Sensitest medium to have a final cell concentration of ˜5×10^(5) CFU/ml in a final volume/well of 50 ul/well. Microtiter plates were incubated at 35±2° C.
Bacterial cell growth was determined with the measurement of optical density at λ=600 nm each 20 minutes over a time course of 16 h. Growth inhibition was calculated during the logarithmic growth of the bacterial cells with determination of the concentration inhibiting 50% (IC50) and 90% (IC90) of the growth.
Table 7 provides the 90% growth inhibitory concentrations (IC90) in micromoles per liter of the compounds of present invention obtained against the strain Acinetobacter baumannii ATCC17961 and/or ATCC17968.

Structure (SMILES) | IC90 [µM]
N#CCn1cc(-c2cnc3c(Nc4ccc(C(=O)N5CCN(C(=O)[C@H]6C[C@H](N)C6)CC5)c(Cl)c4)nccn23)c(C(F)(F)F)n1 [Example 12, 2-[4-[8-[4-[4-(3-aminocyclobutanecarbonyl)piperazine-1-carbonyl]-3-chloroanilino]imidazo[1,2-a]pyrazin-3-yl]-3-(trifluoromethyl)pyrazol-1-yl]acetonitrile formate] | 0.176
CNCC1(O)CCN(C(=O)c2ccc(Nc3nccn4c(-c5cn(CC#N)nc5C(F)(F)F)cnc34)cc2Cl)CC1 [Example 14, 2-[4-[8-[3-chloro-4-[4-hydroxy-4-(methylaminomethyl)piperidine-1-carbonyl]anilino]imidazo[1,2-a]pyrazin-3-yl]-3-(trifluoromethyl)pyrazol-1-yl]acetonitrile formate] | 0.141
CCc1cc(Nc2nccn3c(-c4cn(CCC(C)C)nc4C(F)(F)F)cnc23)ccc1C(=O)NCCOCCN [Example 28, N-[2-(2-aminoethoxy)ethyl]-2-ethyl-4-[[3-[1-(3-methylbutyl)-3-(trifluoromethyl)pyrazol-4-yl]imidazo[1,2-a]pyrazin-8-yl]amino]benzamide formate] | 0.369
CCc1cc(Nc2nccn3c(-c4cn(CC#N)nc4C(F)(F)F)cnc23)ccc1C(=O)NCCOCCN [Example 29, N-[2-(2-aminoethoxy)ethyl]-4-[[3-[1-(cyanomethyl)-3-(trifluoromethyl)pyrazol-4-yl]imidazo[1,2-a]pyrazin-8-yl]amino]-2-ethylbenzamide formate] | 0.107
CCc1cc(Nc2nccn3c(-c4cn(CC)nc4C(F)(F)F)cnc23)ccc1C(=O)NCCOCCN [Example 31, N-[2-(2-aminoethoxy)ethyl]-2-ethyl-4-[[3-[1-ethyl-3-(trifluoromethyl)pyrazol-4-yl]imidazo[1,2-a]pyrazin-8-yl]amino]benzamide formate] | 0.175
CCc1cc(Nc2nccn3c(-c4cn(CCC#N)nc4C(F)(F)F)cnc23)ccc1C(=O)NCCOCCN [Example 33, N-[2-(2-aminoethoxy)ethyl]-4-[[3-[1-(2-cyanoethyl)-3-(trifluoromethyl)pyrazol-4-yl]imidazo[1,2-a]pyrazin-8-yl]amino]-2-ethylbenzamide formate] | 0.269
CCc1cc(Nc2nccn3c(-c4cn(CCOC)nc4C(F)(F)F)cnc23)ccc1C(=O)NCCOCCN [Example 34, N-[2-(2-aminoethoxy)ethyl]-2-ethyl-4-[[3-[1-(2-methoxyethyl)-3-(trifluoromethyl)pyrazol-4-yl]imidazo[1,2-a]pyrazin-8-yl]amino]benzamide formate] | 0.367

Same assay, conditions: Acinetobacter baumannii, ATCC17961, 16 h, strain ATCC 17961, OD600 growth over 16 h, read-out: A. baumannii ATCC 17961 IC90

Structure (SMILES) | IC90 [µM]
O=C(c1ccc(N(c2nccn3c(-c4c[nH]nc4C(F)(F)F)cnc23)C(F)F)cc1Cl)N1CCNCC1 [Example 9, [2-chloro-4-[difluoromethyl-[3-[3-(trifluoromethyl)-1H-pyrazol-4-yl]imidazo[1,2-a]pyrazin-8-yl]amino]phenyl]-piperazin-1-ylmethanone] | 1.05
CNC(=O)c1ccc(Nc2nccn3c(-c4cn(C(F)F)nc4C(F)(F)F)cnc23)cc1Cl [Example 10, 2-chloro-4-[[3-[1-(difluoromethyl)-3-(trifluoromethyl)pyrazol-4-yl]imidazo[1,2-a]pyrazin-8-yl]amino]-N-methylbenzamide] | 0.458
N#CCn1cc(-c2cnc3c(Nc4ccc(C(=O)N5CCC(NC(=O)N[C@H]6CCNC6)CC5)c(Cl)c4)nccn23)c(C(F)(F)F)n1 [Example 11, 1-[1-[2-chloro-4-[[3-[1-(cyanomethyl)-3-(trifluoromethyl)pyrazol-4-yl]imidazo[1,2-a]pyrazin-8-yl]amino]benzoyl]piperidin-4-yl]-3-[(3S)-pyrrolidin-3-yl]urea] | 0.204
CCc1cc(Nc2nccn3c(-c4c[nH]nc4C(F)(F)F)cnc23)ccc1C(=O)NCCCNC(=O)[C@@H](N)CNC(=N)N [Example 13, N-[3-[[(2S)-2-amino-3-carbamimidamidopropanoyl]amino]propyl]-2-ethyl-4-[[3-[3-(trifluoromethyl)-1H-pyrazol-4-yl]imidazo[1,2-a]pyrazin-8-yl]amino]benzamide formate] | 0.166
CCc1cc(Nc2nccn3c(-c4cn(Cc5cc[nH]n5)nc4C(F)(F)F)cnc23)ccc1C(=O)NC [Example 15, 2-ethyl-N-methyl-4-[[3-[1-(1H-pyrazol-3-ylmethyl)-3-(trifluoromethyl)pyrazol-4-yl]imidazo[1,2-a]pyrazin-8-yl]amino]benzamide] | 0.251
C#CCn1cc(-c2cnc3c(Nc4ccc(C(=O)NCCOCCN)c(C)c4)nccn23)c(C(F)(F)F)n1 [Example 16, N-[2-(2-aminoethoxy)ethyl]-2-methyl-4-[[3-[1-prop-2-ynyl-3-(trifluoromethyl)pyrazol-4-yl]imidazo[1,2-a]pyrazin-8-yl]amino]benzamide] | 0.069
CCc1cc(Nc2nccn3c(-c4cn(CC#N)nc4C(F)F)cnc23)ccc1C(=O)NCCOCCN [Example 18, N-[2-(2-aminoethoxy)ethyl]-4-[[3-[1-(cyanomethyl)-3-(difluoromethyl)pyrazol-4-yl]imidazo[1,2-a]pyrazin-8-yl]amino]-2-ethylbenzamide] | 0.26
CCCn1cc(-c2cnc3c(Nc4ccc(C(=O)NCCOCCN)c(CC)c4)nccn23)c(C(F)(F)F)n1 [Example 25, N-[2-(2-aminoethoxy)ethyl]-2-ethyl-4-[[3-[1-propyl-3-(trifluoromethyl)pyrazol-4-yl]imidazo[1,2-a]pyrazin-8-yl]amino]benzamide hydrochloride] | 0.141
CCc1cc(Nc2nccn3c(-c4cn(C5CCCC5)nc4C(F)(F)F)cnc23)ccc1C(=O)NCCOCCN [Example 26, N-[2-(2-aminoethoxy)ethyl]-4-[[3-[1-cyclopentyl-3-(trifluoromethyl)pyrazol-4-yl]imidazo[1,2-a]pyrazin-8-yl]amino]-2-ethylbenzamide hydrochloride] | 0.282
CCc1cc(Nc2nccn3c(-c4cn(C(C)C)nc4C(F)(F)F)cnc23)ccc1C(=O)NCCOCCN [Example 27, N-[2-(2-aminoethoxy)ethyl]-2-ethyl-4-[[3-[1-propan-2-yl-3-(trifluoromethyl)pyrazol-4-yl]imidazo[1,2-a]pyrazin-8-yl]amino]benzamide hydrochloride] | 0.306
CCc1cc(Nc2nccn3c(-c4cn(CC(F)F)nc4C(F)(F)F)cnc23)ccc1C(=O)NCCNC(=O)[C@@H]1CCCN1 [Example 35, (2S)-N-[2-[[4-[[3-[1-(2,2-difluoroethyl)-3-(trifluoromethyl)pyrazol-4-yl]imidazo[1,2-a]pyrazin-8-yl]amino]-2-ethylbenzoyl)amino]ethyl]pyrrolidine-2-carboxamide] | 0.185
CCc1cc(Nc2nccn3c(-c4cn(C(F)F)nc4C(F)(F)F)cnc23)ccc1C(=O)NCCNC(=O)[C@@H]1CCCN1 [Example 36, (2S)-N-[2-[[4-[[3-[1-(difluoromethyl)-3-(trifluoromethyl)pyrazol-4-yl]imidazo[1,2-a]pyrazin-8-yl]amino]-2-ethylbenzoyl)amino]ethyl] pyrrolidine-2-carboxamide] | 0.348
C#CCNC(=O)c1c(C)cc(Nc2nccn3c(-c4cn(CC(F)F)nc4C(F)(F)F)cnc23)cc1F [Example 37, 4-[[3-[1-(2,2-difluoroethyl)-3-(trifluoromethyl)pyrazol-4-yl]imidazo[1,2-a]pyrazin-8-yl]amino]-2-fluoro-6-methyl-N-prop-2-ynylbenzamide] | 0.239
C#CCNC(=O)c1c(C)cc(Nc2nccn3c(-c4cn(Cc5nc(CC6CC6)no5)nc4C(F)(F)F)cnc23)cc1F [Example 38, 4-[[3-[1-[[3-(cyclopropylmethyl)-1,2,4-oxadiazol-5-yl]methyl]-3-(trifluoromethyl)pyrazol-4-yl]imidazo[1,2-a]pyrazin-8-yl]amino]-2-fluoro-6-methyl-N-prop-2-ynylbenzamide] | 0.327
CCc1cc(Nc2nccn3c(-c4c[nH]nc4C(F)(F)F)cnc23)ccc1C(=O)NCCNC(=O)[C@@H]1CCCN1 [Example 39, (2S)-N-[2-[[2-ethyl-4-[[3-[3-(trifluoromethyl)-1H-pyrazol-4-yl]imidazo[1,2-a]pyrazin-8-yl]amino]benzoyl]amino]ethyl] pyrrolidine-2-carboxamide] | 0.47

Same assay, conditions: strain ATCC 17961, OD600 growth over 16 h, read-out: A. baumannii ATCC 17961 IC90

Structure (SMILES) | IC90 [µM]
CCc1cc(Nc2nccn3c(-c4c(C(F)(F)F)n[nH]c4C)cnc23)ccc1C(=O)NCCOCCN [Example 24, N-[2-(2-aminoethoxy)ethyl]-2-ethyl-4-[[3-[5-methyl-3-(trifluoromethyl)-1H-pyrazol-4-yl]imidazo[1,2-a]pyrazin-8-yl]amino] benzamide formate] | 0.523
CCc1cc(Nc2nccn3c(-c4cn(CC5CC5)nc4C(F)(F)F)cnc23)ccc1C(=O)NCCOCCN [Example 30, N-[2-(2-aminoethoxy)ethyl]-4-[[3-[1-(cyclopropylmethyl)-3-(trifluoromethyl)pyrazol-4-yl]imidazo[1,2-a]pyrazin-8-yl]amino]-2-ethylbenzmamide formate] | 0.159
CCc1cc(Nc2nccn3c(-c4cn(CCC(F)(F)F)nc4C(F)(F)F)cnc23)ccc1C(=O)NCCOCCN [Example 32, N-[2-(2-aminoethoxy)ethyl]-2-ethyl-4-[[3-[3-(trifluoromethyl)-1-(3,3,3-(trifluoropropyl)pyrazol-4-yl]imidazo[1,2-a]pyrazin-8-yl]amino]benzamide formate] | 0.19
